These results are taken from US6136848A, “Flavone derivative and medicine comprising the same” (Kowa Co., Ltd., priority 1996, dated 2000).

The target in experiment [1] is T1, Leucotriene D4 Receptor (Cavia porcellus, UniProt Q2NNR5).
T1 construct: guinea pig pulmomembranous protein; from tissue; host or cells: guinea pig lung membranes
T1 sequence (Q2NNR5 1-340): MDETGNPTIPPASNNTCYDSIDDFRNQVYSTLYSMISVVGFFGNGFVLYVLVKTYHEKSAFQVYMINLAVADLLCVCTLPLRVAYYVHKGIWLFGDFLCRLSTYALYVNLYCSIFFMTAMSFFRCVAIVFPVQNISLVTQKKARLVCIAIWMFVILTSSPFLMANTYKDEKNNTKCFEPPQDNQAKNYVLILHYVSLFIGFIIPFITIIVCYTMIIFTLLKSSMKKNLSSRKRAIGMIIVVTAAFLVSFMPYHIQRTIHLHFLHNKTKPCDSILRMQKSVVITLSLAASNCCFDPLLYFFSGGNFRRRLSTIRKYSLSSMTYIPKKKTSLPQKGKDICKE
The experiment can be described thus: Leucotriene D4 Receptor Binding Inhibition Test. Details: species or system guinea pig. The protocol: An ice-cooled tris hydrochloride/sodium chloride buffer (10 mM/100 mM, pH 7.5) was added to terminate the reaction, followed by immediate filtration through a Wattman CF/C filter. The filter was washed twice with 20 ml aliquots of the ice-cooled buffer. The radioactivity of the residue was measured by a liquid scintillation counter. […] Using the Cheng-Prusoff formula, a dissociation constant (KD) was calculated from the IC50. […] Incidentally, the values in Table 2 indicate dissociation constants KD (mol).

Experiment [2] relates to isolated guinea pig ileum. The experiment can be described thus: Antileucotriene D4 Action (In Vitro Test): leukotriene D4 contractile response of isolated guinea pig ileum. In kind it is cell-based. Conditions: Cavia porcellus, 0.5 h; read-out: Anti-LT action (IC50). The protocol:
Antileucotriene D4 Action (In Vitro Test)
An isolated guinea pig ileum was cut into about 2 cm lengths. Each ileum piece was suspended in a 20-ml container filled with the Krebs buffer. […] The Krebs buffer was controlled at 37° C., through which a mixed gas (95%O2 -5%CO2) was bubbled. […] After the ileum piece was washed several times with the buffer, a test compound (will be identified by its example number; this will apply likewise hereinafter) of a predetermined specific concentration was added.

Experiment [3] concerns airway. As to conditions: Larsen & Acosta 1993, cited from earlier work.
[4] abbreviates: 0.2 nM [3H]leukotriene D4, guinea pig pulmomembranous protein, pH 7.5, 30 min, calculated from IC50 by Cheng-Prusoff formula, read-out: LTD receptor, dissociation constant KD.
[5] abbreviates: read-out: LTD receptor, dissociation constant KD.

Like-named read-outs stand apart in the source and are kept apart here.

What is called Kd is a measure of binding affinity in units of concentration. Take `O=C(O)c1cc(F)cc2c(=O)cc(-c3cccc(/C=C/c4ccc5ccccc5n4)c3)oc12` [Example 40, 8-carboxy-6-fluoro-3'-[2-(2-quinolinyl)ethenyl]flavone]: in experiment [1] (setting [4]), the Kd was 127 nM. In the case of `O=c1cc(-c2cccc(/C=C/c3ccc4ccccc4n3)c2)oc2ccc(-c3nnn[nH]3)cc12` [Example 37, 3'-[2-(2-quinolinyl)ethenyl]-6-(5-tetrazolyl)flavone], the Kd in experiment [1] (setting [4]) was 307 nM. What is called IC50 is the midpoint of a concentration-inhibition curve. Take `O=C(O)c1cc(Cl)cc2c(=O)cc(-c3cccc(/C=C/c4ccc5ccccc5n4)c3)oc12` [Example 41, 8-carboxy-6-chloro-3'-[2-(2-quinolinyl)ethenyl]flavone]: the IC50 in experiment [2] amounted to 15 nM. Turning to `CCOC(=O)c1cc(Br)cc2c(=O)cc(-c3cccc(OCc4nc5ccccc5s4)c3)oc12` [Example 18, 6-bromo-8-ethoxycarbonyl-3'-[(2-benzothiazolinyl)methoxy]flavone], in experiment [1] (setting [5]), the Kd stood at 79.4 nM.

For `Cc1cc(C(=O)O)c2oc(-c3cccc(/C=C/c4ccc5ccccc5n4)c3)cc(=O)c2c1` [Example 43, 8-carboxy-6-methyl-3'-[2-(2-quinolinyl)ethenyl]flavone], the IC50 in experiment [2] came to 28 nM. In the case of `Cn1c(COc2cccc(-c3cc(=O)c4cc(Br)cc(C(=O)O)c4o3)c2)nc2ccccc21` [Example 28, 6-bromo-8-carboxy-3'-[2-(1-methylbenzimidazolyl)methoxy]flavone], the equilibrium dissociation constant (Kd) in experiment [1] (setting [4]) is 210 nM. For the molecule `O=C(O)c1cccc2c(=O)c(O)c(-c3ccc(OCc4ccc5ccccc5n4)cc3)oc12` [Example 29, 8-carboxy-3-hydroxy-4'-[(2-quinolinyl)methoxy]flavone], in experiment [1] (setting [5]), the Kd was 805 nM.

As for `O=C(O)c1cc(Br)cc2c(=O)cc(-c3cccc(/C=C/c4ccc5ccccc5n4)c3)oc12` [Example 42, 8-carboxy-6-bromo-3'-[2-(2-quinolinyl)ethenyl]flavone], the IC50 in experiment [2] was determined as 100 nM. As for `O=C(O)c1cc(Br)cc2c(=O)cc(-c3cccc(OCc4nc5ccccc5s4)c3)oc12` [Example 27, 6-bromo-8-carboxy-3'-(2-benzothiazolylmethoxy)flavone], the Kd in experiment [1] (setting [4]) is 79.4 nM. For “[^3 H]leukotriene D4 [reference compound]”, the Kd in experiment [1] ([3H]leukotriene D4, guinea pig pulmomembranous protein, read-out: dissociation constant (KD) of radioligand) is 0.216 nM. The Hill plot slope in experiment [1] ([3H]leukotriene D4 binding) stood at 0.99.

For the molecule `O=C(O)c1cc(Br)cc2c(=O)cc(-c3cccc(OCc4ccc5ccccc5n4)c3)oc12` [Example 23, 6-bromo-8-carboxy-3'-(2-guinolinylmethoxy)flavone], the IC50 in experiment [2] came to 61 nM.

As for `CCOC(=O)c1cc(Br)cc2c(=O)cc(-c3cccc(OCc4nc5ccccc5n4C)c3)oc12` [Example 17, 6-bromo-8-ethoxycarbonyl-3'-[2-(1-methylbenzimidazolyl)methoxy]flavone], the Kd in experiment [1] (setting [5]) came to 210 nM. With `O=C(O)c1cc(Br)cc2c(=O)cc(-c3cccc(OCc4ccc5ccccc5c4)c3)oc12` [Example 26, 6-bromo-8-carboxy-3'-(2-naphthylmethoxy)flavone], the Kd in experiment [1] (setting [4]) was 1130 nM.

Take `CCOC(=O)c1cc(Br)cc2c(=O)cc(-c3cccc(OCc4ccc5ccc(Cl)cc5n4)c3)oc12` [Example 14, 6-bromo-8-ethoxycarbonyl-3'-[2-(7-chloroquinolinyl)methoxy]flavone]: the Kd in experiment [1] (setting [5]) stood at 11.1 nM.

`CCCCC/C=C\C\C=C/C=C/C=C/[C@@H](SC[C@H](N)C(=O)O)[C@@H](O)CCCC(=O)O` [LTE4]: in experiment [3], the “activity compared with the other leucotrienes” value is “lower activities compared with the other leucotrienes” and the “duration of induced airway constriction” value was “long lasting”. `CCCCC/C=C\C\C=C/C=C/C=C/[C@@H](SC[C@H](NC(=O)CC[C@H](N)C(=O)O)C(=O)NCC(=O)O)[C@@H](O)CCCC(=O)O` [LTC4]: the “effect on airway constriction relative to histamine” value in experiment [3] (inhaled, vs histamine) is 1,000 times. Turning to `O=C(O)c1cccc2c(=O)c(OCCN3C(=O)c4ccccc4C3=O)c(-c3ccc(OCc4ccc5ccccc5n4)cc3)oc12` [Example 31, 8-carboxy-3-(2-phthalimido)ethoxy-4'-[(2-quinolinyl)methoxy]flavone], the dissociation constant (Kd) in experiment [1] (setting [5]) is 9160 nM. Still for that read-out and setting: under `O=c1cc(-c2cccc(/C=C/c3ccc4ccccc4n3)c2)oc2c(-c3nn[nH]n3)cc(Cl)cc12` [Example 45, 6-chloro-3'-[2-(2-quinolinyl)ethenyl]-8-(5-tetrazolyl)flavone] stands 11 nM; under `O=C(O)c1cccc2c(=O)cc(-c3cccc(/C=C/c4ccc5ccccc5n4)c3)oc12` [Example 39, 8-carboxy-3'-[2-(2-quinolinyl)ethenyl]flavone], 17.3 nM.
